The values that follow are results of earlier work, collected in patent US20120244588A1, “METHOD OF PRODUCING 3-HYDROXYPROPIONIC ACID USING MALONIC SEMIALDEHYDE REDUCING PATHWAY” (SAMSUNG ELECTRONICS CO., LTD., priority 2011, published 2012).

For series [1] the following is noted: 25° C.

Consider `O=C([O-])CCO.O=C([O-])CCO.[Ca+2]` [calcium salt of 3-HP], for which the “solubility in water relative to citric acid or malic acid” value was 100 times.
In the case of `O=C(O)CCO` [3-HP, 3-hydroxypropionic acid], the solubility in water result is reported as “very soluble”. For the same compound, in series [1], the pKa is listed as 4.51.

Usually pKa stands for the negative logarithm of the acid dissociation constant.
